From patent US10508085B2, “Compounds and methods for IDO and TDO modulation, and indications therefor” (Plexxikon Inc., priority 2016, dated 2019) come the findings set out here.

Where only a bound is given, the exact number is not on record here.

The target in test [1] is T1, Human Tryptophan 2,3-dioxygenase (TDO) (Homo sapiens, UniProt P48775).
T1 construct: His tag (N); made in house; host or cells: E. coli
Kind of test: Human TDO enzymatic assay (kynurenine level). It counts as biochemical. The note with it: 1 nM TDO, 350 μM L-Trp; geometric mean; read-out: TDO GMean: IC50 (μM) (Biochemical Assay). The method, boiled down:
(§1)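 IDO conditions: 6 nM His-IDO, 10 μM L-Trp, 5 μM methylene blue, 20 min, RT. TDO conditions: 1 nM His-TDO, 350 μM L-Trp, 0.4 μM methylene blue, 70 min, RT. Both used pH 6.5 phosphate plus ascorbate/catalase, TCA stop at 50° C, kynurenine readout, nonlinear-regression IC50.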

The target in test [2] is T2, Human Indoleamine 2,3-dioxygenase (IDO) (Homo sapiens, UniProt P14902).
T2 construct: His tag (N); made in house; host or cells: E. coli
T2 sequence (P14902 whole entry): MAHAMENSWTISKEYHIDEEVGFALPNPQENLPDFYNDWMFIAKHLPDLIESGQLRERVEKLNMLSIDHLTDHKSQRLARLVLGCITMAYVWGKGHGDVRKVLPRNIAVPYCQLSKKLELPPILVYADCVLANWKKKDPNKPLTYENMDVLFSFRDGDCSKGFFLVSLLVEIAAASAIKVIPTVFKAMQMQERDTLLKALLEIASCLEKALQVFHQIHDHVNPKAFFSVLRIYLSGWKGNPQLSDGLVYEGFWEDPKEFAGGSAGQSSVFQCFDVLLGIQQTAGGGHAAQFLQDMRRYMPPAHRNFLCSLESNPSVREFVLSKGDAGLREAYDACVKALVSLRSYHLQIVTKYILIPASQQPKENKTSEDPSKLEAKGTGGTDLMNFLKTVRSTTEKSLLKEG
As to the kind of experiment: Human IDO enzymatic assay (kynurenine level). The format is biochemical. To be noted: 6 nM IDO, 10 μM L-Trp; geometric mean; read-out: IDO1 GMean: IC50 (μM) (Biochemical Assay). The method, boiled down:
as §1

Test [3] addresses T3, human TDO (TDO-expressing HEK293 cells) (Homo sapiens, UniProt P48775).
T3 construct: expressed in transfected cells
As to the kind of experiment: Cell based kynurenine assay, TDO-expressing HEK293 cell clones. To be noted: TDO-expressing HEK293 cells, 24 hours incubation; geometric mean; read-out: HEK293 TDO Kynurenine GMean IC50 (μM) (Cellular Assay). The method, boiled down: (§2)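 Kynurenine in culture supernatant read after 24 h compound exposure of HEK293 cells stably expressing human IDO1 or TDO. IC50 from nonlinear regression of % inhibition relative to 0.2% DMSO cell (high) and media-only (low) controls.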

The target of test [4] is T4, human IDO (IDO1-expressing HEK293 cells) (Homo sapiens, UniProt P14902).
T4 construct: expressed in transfected cells
T4 sequence (P14902 whole entry): as above
As to the kind of experiment: Cell based kynurenine assay, IDO1-expressing HEK293 cell clones. The note with it: IDO1-expressing HEK293 cells, 24 hours incubation; geometric mean; read-out: HEK293 IDO1 Kynurenine GMean IC50 (μM) (Cellular Assay). The method, boiled down: as §2

T3 sequence (P48775 whole entry): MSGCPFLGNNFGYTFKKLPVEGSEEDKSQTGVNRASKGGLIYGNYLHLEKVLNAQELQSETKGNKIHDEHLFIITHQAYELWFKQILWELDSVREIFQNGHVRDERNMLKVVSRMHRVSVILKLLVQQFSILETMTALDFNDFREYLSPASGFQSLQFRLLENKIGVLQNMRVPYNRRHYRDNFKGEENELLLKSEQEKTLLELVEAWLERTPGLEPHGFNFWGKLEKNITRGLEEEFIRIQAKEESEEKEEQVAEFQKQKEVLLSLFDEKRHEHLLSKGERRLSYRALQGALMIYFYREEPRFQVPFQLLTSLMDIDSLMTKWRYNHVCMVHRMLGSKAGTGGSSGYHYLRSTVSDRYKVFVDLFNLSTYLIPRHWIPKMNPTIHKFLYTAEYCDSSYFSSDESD
T1 sequence (P48775 whole entry): as above

Broadly, the IC50 is the midpoint of a concentration-inhibition curve. As for `OC(c1cc(Cl)c(F)c2cn[nH]c12)C(F)(F)C1CCOCC1` (centres unmarked) [Compound P-0218, 1-(5-chloro-4-fluoro-1H-indazol-7-yl)-2,2-difluoro-2-(tetrahydro-2H-pyran-4-yl)ethan-1-ol], the IC50 in test [1], in test [2], in test [3] and in test [4] was 0.0001 to 10 µM in each case.

In the case of `O=C(O)C1CCC(C(O)c2cc(Cl)cc3cn[nH]c23)CC1` (centres unmarked) [Compound P-0219, 4-((5-chloro-1H-indazol-7-yl)(hydroxy)methyl)cyclohexane-1-carboxylic acid], the concentration for half-maximal inhibition (IC50) in test [1] is 0.0001 to 10 µM; in test [2], 10 to 100 µM; in test [3], greater than 10 µM; in test [4], greater than 10 µM.

Take `CC(C)(C1CCOCC1)C(O)c1c(Cl)c(Cl)cc2cn[nH]c12` (centres unmarked) [Compound P-0220, 1-(5,6-dichloro-1H-indazol-7-yl)-2-methyl-2-(tetrahydro-2H-pyran-4-yl)propan-1-ol]: the IC50 in test [1], in test [2], in test [3] and in test [4] was 0.0001 to 10 µM each time.

With `OC(c1cc(Cl)cc2cn[nH]c12)C1(C2CCOCC2)CC1` (centres unmarked) [Compound P-0221, (5-chloro-1H-indazol-7-yl)(1-(tetrahydro-2H-pyran-4-yl)cyclopropyl)methanol], the 50% inhibitory concentration (IC50) in test [1], in test [2], in test [3] and in test [4] was 0.0001 to 10 µM throughout.

In the case of `CC(F)(F)C1(C(C)(F)F)CC(O)(c2cc(Cl)cc3cn[nH]c23)C1` [Compound P-0222, 1-(5-chloro-1H-indazol-7-yl)-3,3-bis(1,1-difluoroethyl)cyclobutan-1-ol], the IC50 in test [1], in test [2], in test [3] and in test [4] was 0.0001 to 10 µM in each case.

As to `CCC1(C(O)c2cc(Cl)cc3cn[nH]c23)CCC1` (centres unmarked) [Compound P-0223, (5-chloro-1H-indazol-7-yl)(1-ethylcyclobutyl)methanol], the 50% inhibitory concentration (IC50) in test [1], in test [2], in test [3] and in test [4] was 0.0001 to 10 µM each time.

With `CC(C)(C1CC1)C(O)c1cc(Cl)cc2cn[nH]c12` (centres unmarked) [Compound P-0224, 1-(5-chloro-1H-indazol-7-yl)-2-cyclopropyl-2-methylpropan-1-ol], the concentration for half-maximal inhibition (IC50) in test [1], in test [2], in test [3] and in test [4] was 0.0001 to 10 µM in each case.

On to `OC(c1cc(Cl)cc2cn[nH]c12)C1(C2CC2)CC1` (centres unmarked) [Compound P-0225, [1,1′-bi(cyclopropan)]-1-yl(5-chloro-1H-indazol-7-yl)methanol], for which the 50% inhibitory concentration (IC50) in test [1], in test [2], in test [3] and in test [4] was 0.0001 to 10 µM in each case.

In the case of `CS(=O)(=O)N1CC(C(O)c2cc(Cl)cc3cn[nH]c23)C1` (centres unmarked) [Compound P-0226, (5-chloro-1H-indazol-7-yl)(1-(methylsulfonyl)azetidin-3-yl)methanol], the half-maximal inhibitory concentration (IC50) was 0.0001 to 10 µM in test [1], 0.0001 to 10 µM in test [2], greater than 10 µM in test [3] and 0.0001 to 10 µM in test [4].

Regarding `OC(c1cc(Cl)cc2cn[nH]c12)C12CCC(F)(CC1)CC2` (centres unmarked) [Compound P-0227, (5-chloro-1H-indazol-7-yl)(4-fluorobicyclo[2.2.2]octan-1-yl)methanol], the IC50 in test [1], in test [2], in test [3] and in test [4] was 0.0001 to 10 µM each time.

Turning to `CC1(C(O)c2cc(Cl)cc3cn[nH]c23)CC2CC2C1` (centres unmarked) [Compound P-0228, (5-chloro-1H-indazol-7-yl)(3-methylbicyclo[3.1.0]hexan-3-yl)methanol], the IC50 in test [1], in test [2], in test [3] and in test [4] was 0.0001 to 10 µM throughout.

As to `OC(c1cc(Cl)cc2cn[nH]c12)C12CCC(CC1)C2` (centres unmarked) [Compound P-0229, bicyclo[2.2.1]heptan-1-yl(5-chloro-1H-indazol-7-yl)methanol], the IC50 in test [1], in test [2], in test [3] and in test [4] was 0.0001 to 10 µM each time.

For the compound `CN(C)C(C)(C)C(O)c1cc(Cl)cc2cn[nH]c12` (centres unmarked) [Compound P-0230, 1-(5-chloro-1H-indazol-7-yl)-2-(dimethylamino)-2-methylpropan-1-ol], the half-maximal inhibitory concentration (IC50) in test [1] was 10 to 100 µM; in test [2], 10 to 100 µM; in test [3] it was greater than 10 µM; in test [4], greater than 10 µM.

In the case of `CC(C)(C(O)c1cc(Cl)cc2cn[nH]c12)N1CCCC1` (centres unmarked) [Compound P-0231, 1-(5-chloro-1H-indazol-7-yl)-2-methyl-2-(pyrrolidin-1-yl)propan-1-ol], the half-maximal inhibitory concentration (IC50) in test [1] was 10 to 100 µM; in test [2] it was 100 to 200 µM; in test [3], greater than 10 µM; in test [4], greater than 10 µM.

`CC(C)(C1CCOCC1)C(O)c1c(F)c(Cl)cc2cn[nH]c12` (centres unmarked) [Compound P-0232, 1-(5-chloro-6-fluoro-1H-indazol-7-yl)-2-methyl-2-(tetrahydro-2H-pyran-4-yl)propan-1-ol]: the concentration for half-maximal inhibition (IC50) in test [1], in test [2], in test [3] and in test [4] was 0.0001 to 10 µM each time.

As for `CC(C)(N)CC(O)c1cc(Cl)cc2cn[nH]c12` (centres unmarked) [Compound P-0233, 3-amino-1-(5-chloro-1H-indazol-7-yl)-3-methylbutan-1-ol], the 50% inhibitory concentration (IC50) in test [1] is 10 to 100 µM; in test [2], 10 to 100 µM; in test [3], greater than 10 µM; in test [4] it was greater than 10 µM.

With `Cc1ccc2cn[nH]c2c1C(O)C(C)(C)C1CCOCC1` (centres unmarked) [Compound P-0234, 2-methyl-1-(6-methyl-1H-indazol-7-yl)-2-(tetrahydro-2H-pyran-4-yl)propan-1-ol], the half-maximal inhibitory concentration (IC50) in test [1], in test [2], in test [3] and in test [4] was 0.0001 to 10 µM each time.

`OC(c1c(F)c(Cl)cc2cn[nH]c12)C1(C2CCOCC2)CC1` (centres unmarked) [Compound P-0235, (5-chloro-6-fluoro-1H-indazol-7-yl)(1-(tetrahydro-2H-pyran-4-yl)cyclopropyl)methanol]: the 50% inhibitory concentration (IC50) in test [1], in test [2], in test [3] and in test [4] was 0.0001 to 10 µM each time.

For the compound `CC1(C(O)c2cc(Cl)cc3cn[nH]c23)CCOCC1` (centres unmarked) [Compound P-0236, (5-chloro-1H-indazol-7-yl)(4-methyltetrahydro-2H-pyran-4-yl)methanol], the IC50 in test [1], in test [2], in test [3] and in test [4] was 0.0001 to 10 µM in each case.

On to `OC(c1c(Cl)c(Cl)cc2cn[nH]c12)C1CCC1` (centres unmarked) [Compound P-0237, cyclobutyl(5,6-dichloro-1H-indazol-7-yl)methanol], for which the half-inhibitory concentration (IC50) in test [1], in test [2], in test [3] and in test [4] was 0.0001 to 10 µM in each case.

Take `OC(c1c(Cl)c(Cl)cc2cn[nH]c12)C1(C2CCCCC2)CC1` (centres unmarked) [Compound P-0238, (1-cyclohexylcyclopropyl)(5,6-dichloro-1H-indazol-7-yl)methanol]: the IC50 in test [1], in test [2], in test [3] and in test [4] was 0.0001 to 10 µM each time.

Consider `CC(C)(C)C(O)c1c(Cl)c(Cl)cc2cn[nH]c12` (centres unmarked) [Compound P-0239, 1-(5,6-dichloro-1H-indazol-7-yl)-2,2-dimethylpropan-1-ol], for which the IC50 in test [1], in test [2], in test [3] and in test [4] was 0.0001 to 10 µM throughout.

In the case of `OC(c1cc(Cl)cc2cn[nH]c12)C1CC2CCC1C2` (centres unmarked) [Compound P-0240, bicyclo[2.2.1]heptan-2-yl(5-chloro-1H-indazol-7-yl)methanol], the 50% inhibitory concentration (IC50) in test [1], in test [2], in test [3] and in test [4] was 0.0001 to 10 µM each time.

In the case of `CC1(C)OC(C)(C)C12CC(O)(c1cc(Cl)cc3cn[nH]c13)C2` [Compound P-0243, 6-(5-chloro-1H-indazol-7-yl)-1,1,3,3-tetramethyl-2-oxaspiro[3.3]heptan-6-ol], the IC50 in test [1], in test [2], in test [3] and in test [4] was 0.0001 to 10 µM each time.

`[2H]C(O)(c1cc(Cl)cc2cn[nH]c12)C(C)(C)C1CCOCC1` (stereo not drawn) [Compound P-0244, 1-(5-chloro-1H-indazol-7-yl)-2-methyl-2-(tetrahydro-2H-pyran-4-yl)propan-1-d-1-ol]: the concentration for half-maximal inhibition (IC50) in test [1], in test [2], in test [3] and in test [4] was 0.0001 to 10 µM throughout.

Consider `OC(c1c(F)c(Cl)c(F)c2cn[nH]c12)C1CCC1` (centres unmarked) [Compound P-0246, (5-chloro-4,6-difluoro-1H-indazol-7-yl)(cyclobutyl)methanol], for which the IC50 in test [1], in test [2], in test [3] and in test [4] was 0.0001 to 10 µM in each case.
